Source: ChEMBL document CHEMBL4422618, “Translational impact of novel widely pharmacological characterized mofezolac-derived COX-1 inhibitors combined with bortezomib on human multiple myeloma cell lines viability” (Eur J Med Chem, 2019)
The source made the active and inactive calls. No cut-off for these calls is given here.

Experiments:
[1] = target: T1, Prostaglandin G/H synthase 2 (Homo sapiens, UniProt P35354); experiment: Inhibition of human COX2 using arachidonic acid as substrate by colorimetric assay
T1 sequence (P35354 whole entry): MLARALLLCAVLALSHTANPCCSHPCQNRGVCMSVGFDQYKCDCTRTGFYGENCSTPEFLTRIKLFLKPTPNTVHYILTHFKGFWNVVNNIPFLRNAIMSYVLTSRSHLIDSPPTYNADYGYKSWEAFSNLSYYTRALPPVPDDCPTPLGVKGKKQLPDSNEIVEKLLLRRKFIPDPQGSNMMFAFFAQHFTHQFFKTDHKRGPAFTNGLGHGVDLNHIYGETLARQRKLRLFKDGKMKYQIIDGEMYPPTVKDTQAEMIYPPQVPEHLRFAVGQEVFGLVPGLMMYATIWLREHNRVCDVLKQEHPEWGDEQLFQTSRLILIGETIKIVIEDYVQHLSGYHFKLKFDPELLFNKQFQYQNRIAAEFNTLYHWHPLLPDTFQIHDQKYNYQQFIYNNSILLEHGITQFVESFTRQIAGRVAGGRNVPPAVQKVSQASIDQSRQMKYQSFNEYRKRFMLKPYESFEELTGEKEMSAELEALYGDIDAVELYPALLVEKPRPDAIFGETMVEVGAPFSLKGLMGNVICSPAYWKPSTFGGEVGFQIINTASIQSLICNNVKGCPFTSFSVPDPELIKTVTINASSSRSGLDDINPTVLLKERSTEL

[2] = target: T2, Prostaglandin G/H synthase 1 (Ovis aries) (UniProt P05979); experiment: Inhibition of ovine COX1 at 50 uM using arachidonic acid as substrate by colorimetric assay relative to control
T2 sequence (whole entry): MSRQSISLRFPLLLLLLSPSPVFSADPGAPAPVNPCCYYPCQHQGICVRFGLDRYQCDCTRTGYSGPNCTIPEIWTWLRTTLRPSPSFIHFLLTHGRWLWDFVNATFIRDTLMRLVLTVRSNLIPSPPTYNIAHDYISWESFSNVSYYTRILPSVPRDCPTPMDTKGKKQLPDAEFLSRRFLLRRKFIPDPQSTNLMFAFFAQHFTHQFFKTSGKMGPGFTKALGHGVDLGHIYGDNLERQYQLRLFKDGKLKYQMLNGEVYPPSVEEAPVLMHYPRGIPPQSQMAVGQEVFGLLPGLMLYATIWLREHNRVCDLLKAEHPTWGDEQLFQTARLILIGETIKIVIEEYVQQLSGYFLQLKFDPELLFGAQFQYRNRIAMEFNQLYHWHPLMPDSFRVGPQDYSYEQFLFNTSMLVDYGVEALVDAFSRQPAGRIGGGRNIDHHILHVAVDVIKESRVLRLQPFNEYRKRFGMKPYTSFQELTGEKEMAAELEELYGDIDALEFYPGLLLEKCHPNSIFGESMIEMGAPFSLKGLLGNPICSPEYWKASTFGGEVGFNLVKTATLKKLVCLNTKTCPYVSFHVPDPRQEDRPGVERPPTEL

Platelet = experiment: Antiplatelet activity in human platelet rich plasma assessed as inhibition of arachidonic acid-induced platelet aggregation preincubated for 2 mins followed by arachidonic acid addition by turbidimetric method; format: functional, cell-based
Plasma = experiment: Anticoagulant activity in human platelet poor plasma assessed as activated partial thromboplastin time at 100 uM incubated for 15 mins at room temperature and subsequent incubation for 2 mins at 37 degreeC followed by cephalin addition and measured after 2 mins for every secs in presence of CaCl2; format: functional
[3] = Genotoxicity in Escherichia coli PQ35 at 500 uM after overnight incubation by SOS chromotest; format: toxicity
NCI-H929 [4] = experiment: Cytotoxicity against human NCI-H929 cells assessed as reduction in cell viability at 42 nM after 48 hrs by CCK8 assay; format: functional, cell-based
RPMI-8226 [5] = experiment: Cytotoxicity against human RPMI8226 cells assessed as reduction in cell viability at 1.7 uM after 48 hrs by CCK8 assay relative to control; format: functional
NCI-H929 [6] = experiment: Potentiation of bortezomib-induced cytotoxicity against human NCI-H929 cells assessed as reduction in cell viability at 42 nM after 48 hrs in presence of bortezomib by CCK8 assay; format: functional, cell-based
RPMI-8226 [7] = experiment: Potentiation of bortezomib-induced cytotoxicity against human RPMI8226 cells assessed as reduction in cell viability at 42 nM after 48 hrs in presence of bortezomib by CCK8 assay; format: functional
NCI-H929 [8] = experiment: Cell cycle arrest in human NCI-H929 cells assessed as accumulation at G0/G1 phase at 42 nM in presence of bortezomib after 48 hrs by propidium iodide/RNase staining based flow cytometric method relative to bortezomib alone; format: functional
NCI-H929 [9] = experiment: Induction of apoptosis in human NCI-H929 cells assessed as early apoptotic cells at 42 nM after 48 hrs by Annexin-V/propidium iodide staining based flow cytometric method (reference value: 17.1%); format: functional
NCI-H929 [10] = experiment: Induction of apoptosis in human NCI-H929 cells assessed as late apoptotic cells at 42 nM after 48 hrs by Annexin-V/propidium iodide staining based flow cytometric method (reference value: 0.23%); format: functional
NCI-H929 [11] = experiment: Induction of apoptosis in human NCI-H929 cells assessed as necrotic cells at 42 nM after 48 hrs by Annexin-V/propidium iodide staining based flow cytometric method (reference value: 0.0034%); format: functional
NCI-H929 [12] = experiment: Induction of apoptosis in human NCI-H929 cells assessed as late apoptotic cells at 42 nM after 48 hrs in presence of bortezomib by Annexin-V/propidium iodide staining based flow cytometric method (reference value: 0.23%); format: functional
NCI-H929 [13] = experiment: Induction of apoptosis in human NCI-H929 cells assessed as necrotic cells at 42 nM after 48 hrs in presence of bortezomib by Annexin-V/propidium iodide staining based flow cytometric method (reference value: 0.0034%); format: functional
NCI-H929 [14] = experiment: Induction of apoptosis in human NCI-H929 cells assessed as viable cells at 42 nM after 48 hrs in presence of bortezomib by Annexin-V/propidium iodide staining based flow cytometric method (reference value: 82.6%); format: functional; conditions: NCI-H929, 48 h, read-out: Activity
RPMI-8226 [15] = experiment: Induction of apoptosis in human RPMI8226 cells assessed as early apoptotic cells at 42 nM after 48 hrs in presence of bortezomib by Annexin-V/propidium iodide staining based flow cytometric method (reference value: 1.05%); format: functional
RPMI-8226 [16] = experiment: Induction of apoptosis in human RPMI8226 cells assessed as viable cells at 42 nM after 48 hrs in presence of bortezomib by Annexin-V/propidium iodide staining based flow cytometric method (reference value: 98.7%); format: functional; conditions: RPMI-8226, 48 h, read-out: Activity
RPMI-8226 [17] = experiment: Cell cycle arrest in human RPMI8226 cells assessed as accumulation at G0/G1 phase at 42 nM in presence of bortezomib after 48 hrs by propidium iodide/RNase staining based flow cytometric method relative to bortezomib; format: functional
RPMI-8226 [18] = experiment: Cell cycle arrest in human RPMI8226 cells assessed as accumulation at S phase at 42 nM in presence of bortezomib after 48 hrs by propidium iodide/RNase staining based flow cytometric method relative to bortezomib; format: functional
RPMI-8226 [19] = experiment: Cell cycle arrest in human RPMI8226 cells assessed as reduction in accumulation at G2/M phase at 42 nM in presence of bortezomib after 48 hrs by propidium iodide/RNase staining based flow cytometric method relative to bortezomib; format: functional

IC50 [1]: > 50000 nM
inhibition [2]: 100%
IC50 (Platelet): 630 nM
SMILES: C=Cc1onc(-c2ccc(OC)cc2)c1-c1ccc(OC)cc1
APTT (Plasma): 51.2 s
Activity [3]: Non-Toxic
Activity (NCI-H929 [4]): inactive
Activity (RPMI-8226 [5]): 4%
Activity (NCI-H929 [6]): inactive
Activity (RPMI-8226 [7]): 66%
Activity (NCI-H929 [8]): 15%
Activity (NCI-H929 [9]): 16.9%
Activity (NCI-H929 [10]): 0.11%
Activity (NCI-H929 [11]): 0.012%
Activity (NCI-H929 [12]): 0.22%
Activity (NCI-H929 [13]): 0%
viability at 0.042 µM (NCI-H929 [14]): 39.2%
Activity (RPMI-8226 [15]): 9.68%
viability at 0.042 µM (RPMI-8226 [16]): 89.9%
Activity (RPMI-8226 [17]): Active
Activity (RPMI-8226 [18]): Active
Activity (RPMI-8226 [19]): Active
